In patent publication US6576671B1, “Aminotetralin derivatives for the therapy of cardiovascular diseases” (Chiese Farmaceutici S.p.A., priority 1999, dated 2003):

System: patients with a moderate congestive heart failure (class NYHA II-III)
Assay: Randomized double-blind study versus placebo, hemodynamic and neurohumoral parameters
Format: in vivo, human
Method: In order to investigate the effects of the compound both on the hemodynamic parameters and the neurohumoral pattern, a randomized double-blind study versus placebo was carried out in 18 patients with a moderate congestive heart failure (class NYHA II-III).
Each patient received on 3 consecutive days 2 active doses of CHF 1035 and 1 placebo dose.
The following hemodynamic parameters were evaluated:
pulmonary capillary wedge pressure (PCWP) (mmHg);
cardiac index (CJ) (L/min/m^2);
stroke volume index (SVI) (ml/min/m^2);
systemic vascular resistance (SVR) (dyneseccm^−5);
mean blood pressure (BPm) (mmHg).
The evaluations were carried out by catheterization of the right heart (Swan-Ganz catheter), measuring the hemodynamic parameters of the tested medicament before administration or “pre-dose” (PD) and for the 300 subsequent minutes after the administration or “after-dose” (AD), every 20 minutes for the first 2 hours, then every 60 minutes.
To evaluate the effects of the compound on neurohormones, noradrenaline (NE) (pg/ml) and adrenalin (E) (pg/ml) plasmatic levels were further evaluated, before and 140 minutes after the administration of CHF 1035 and placebo, respectively.

[1] = 5 mg, 140 minutes after administration (AD)
[2] = 5 mg, before administration (PD)
[3] = 10 mg, 140 minutes after administration (AD)
[4] = 10 mg, before administration (PD)
[5] = 15 mg, 140 minutes after administration (AD)
[6] = 15 mg, before administration (PD)

CNC1CCc2c(ccc(OC(=O)C(C)C)c2OC(=O)C(C)C)C1 (stereo not shown) [CHF 1035, 5,6-Diisobutyroyloxy-2-methylaminotetralin]
reduction in the peripheral vascular resistances (5 mg): −15.4%
adrenalin (E) plasmatic level [1]: 42 pg/mL
noradrenaline (NE) plasmatic level [1]: 301 pg/mL
cardiac index (CI) (5 mg, after-dose (AD)): 3.4 L/min/m^2
heart rate (HR) (5 mg, after-dose (AD)): 78 bpm
mean blood pressure (BPm) (5 mg, after-dose (AD)): 82 mmHg
pulmonary capillary wedge pressure (PCWP) (5 mg, after-dose (AD)): 18 mmHg
stroke volume index (SVI) (5 mg, after-dose (AD)): 43 ml/min/m^2
systemic vascular resistance (SVR) (5 mg, after-dose (AD)): 1052 dyneseccm^−5
adrenalin (E) plasmatic level [2]: 56 pg/mL
noradrenaline (NE) plasmatic level [2]: 299 pg/mL
cardiac index (CI) (5 mg, pre-dose (PD)): 3 L/min/m^2
heart rate (HR) (5 mg, pre-dose (PD)): 74 bpm
mean blood pressure (BPm) (5 mg, pre-dose (PD)): 85 mmHg
pulmonary capillary wedge pressure (PCWP) (5 mg, pre-dose (PD)): 22 mmHg
systemic vascular resistance (SVR) (5 mg, pre-dose (PD)): 1243 dyneseccm^−5
reduction in the peripheral vascular resistances (10 mg): −27.0%
adrenalin (E) plasmatic level [3]: 62 pg/mL
noradrenaline (NE) plasmatic level [3]: 244 pg/mL
cardiac index (CI) (10 mg, after-dose (AD)): 3.4 L/min/m^2
heart rate (HR) (10 mg, after-dose (AD)): 76 bpm
mean blood pressure (BPm) (10 mg, after-dose (AD)): 77 mmHg
pulmonary capillary wedge pressure (PCWP) (10 mg, after-dose (AD)): 16 mmHg
stroke volume index (SVI) (10 mg, after-dose (AD)): 45 ml/min/m^2
systemic vascular resistance (SVR) (10 mg, after-dose (AD)): 1009 dyneseccm^−5
adrenalin (E) plasmatic level [4]: 65 pg/mL
noradrenaline (NE) plasmatic level [4]: 285 pg/mL
cardiac index (CI) (10 mg, pre-dose (PD)): 2.7 L/min/m^2
heart rate (HR) (10 mg, pre-dose (PD)): 70 bpm
mean blood pressure (BPm) (10 mg, pre-dose (PD)): 85 mmHg
pulmonary capillary wedge pressure (PCWP) (10 mg, pre-dose (PD)): 20 mmHg
stroke volume index (SVI) (10 mg, pre-dose (PD)): 38 ml/min/m^2
systemic vascular resistance (SVR) (10 mg, pre-dose (PD)): 1382 dyneseccm^−5
reduction in the peripheral vascular resistances (15 mg): −35.2%
adrenalin (E) plasmatic level [5]: 58 pg/mL
noradrenaline (NE) plasmatic level [5]: 308 pg/mL
cardiac index (CI) (15 mg, after-dose (AD)): 4 L/min/m^2
heart rate (HR) (15 mg, after-dose (AD)): 80 bpm
mean blood pressure (BPm) (15 mg, after-dose (AD)): 79 mmHg
pulmonary capillary wedge pressure (PCWP) (15 mg, after-dose (AD)): 16 mmHg
stroke volume index (SVI) (15 mg, after-dose (AD)): 49 ml/min/m^2
systemic vascular resistance (SVR) (15 mg, after-dose (AD)): 881 dyneseccm^−5
adrenalin (E) plasmatic level [6]: 53 pg/mL
noradrenaline (NE) plasmatic level [6]: 340 pg/mL
cardiac index (CI) (15 mg, pre-dose (PD)): 3 L/min/m^2
heart rate (HR) (15 mg, pre-dose (PD)): 74 bpm
mean blood pressure (BPm) (15 mg, pre-dose (PD)): 87 mmHg
pulmonary capillary wedge pressure (PCWP) (15 mg, pre-dose (PD)): 21 mmHg
stroke volume index (SVI) (15 mg, pre-dose (PD)): 40 ml/min/m^2
systemic vascular resistance (SVR) (15 mg, pre-dose (PD)): 1359 dyneseccm^−5
increase in heart rate (5, 10, 15 mg, only a relative increase): not clinically significant
catecholamines plasmatic levels (during systemic vasodilation): without inducing any reflected increase
